According to PubChem BioAssay (NCI):
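These data come from cells grown in 96-well plates and exposed to compound for 48 hours at five concentrations. GI50: concentration for 50% inhibition of growth. Definition used: TGI = concentration required for complete inhibition of growth.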

How the values were obtained:
Test in all cases: NCI-60 cell line screen, 48 h
OVCAR-4 ovarian = test system: OVCAR-4 ovarian
TK-10 renal = test system: TK-10 renal
RPMI-8226 leukemia = test system: RPMI-8226 leukemia
IGROV1 ovarian = test system: IGROV1 ovarian
T-47D breast = test system: T-47D breast
CCRF-CEM leukemia = test system: CCRF-CEM leukemia
M14 melanoma = test system: M14 melanoma
MDA-N = test system: MDA-N
786-0 renal = test system: 786-0 renal
XF 498 CNS = test system: XF 498 CNS
DMS 273 small cell lung = test system: DMS 273 small cell lung
DMS 114 small cell lung = test system: DMS 114 small cell lung
SNB-78 CNS = test system: SNB-78 CNS

CNC(C)C(O)c1ccc2oc3cc(=O)c4ccccc4c-3nc2c1 (stereo unspecified)
TGI (OVCAR-4 ovarian): 36.6 µM
TGI (TK-10 renal): > 100 µM
TGI (RPMI-8226 leukemia): > 100 µM
TGI (IGROV1 ovarian): > 100 µM
TGI (T-47D breast): 98.4 µM
TGI (CCRF-CEM leukemia): 47 µM
TGI (M14 melanoma): 16.1 µM

C(=Nc1ccc2c(c1)Cc1ccccc1-2)c1ccccn1
TGI (MDA-N): > 100 µM
TGI (OVCAR-4 ovarian): > 100 µM
TGI (TK-10 renal): > 100 µM
TGI (IGROV1 ovarian): > 100 µM
TGI (T-47D breast): > 100 µM
TGI (CCRF-CEM leukemia): > 100 µM
TGI (M14 melanoma): > 100 µM
TGI (786-0 renal): > 100 µM

O=c1cc(CF)[nH]c(=S)[nH]1
TGI (MDA-N): > 100 µM
TGI (OVCAR-4 ovarian): > 100 µM
TGI (TK-10 renal): > 100 µM
TGI (IGROV1 ovarian): > 100 µM
TGI (T-47D breast): > 100 µM
TGI (CCRF-CEM leukemia): > 100 µM
TGI (M14 melanoma): > 100 µM
TGI (786-0 renal): > 100 µM

COc1ccc(/C=N/n2cnc3c(c2=O)SC(=C(C#N)C#N)N3c2ccccc2)cc1
TGI (TK-10 renal): > 100 µM
TGI (RPMI-8226 leukemia): > 100 µM
TGI (IGROV1 ovarian): > 100 µM
TGI (CCRF-CEM leukemia): > 100 µM

N[C@H](Cc1ccc2oc3cc(=O)c4ccccc4c-3nc2c1)C(=O)O
TGI (MDA-N): 38.1 µM
TGI (OVCAR-4 ovarian): > 100 µM
TGI (TK-10 renal): > 100 µM
TGI (RPMI-8226 leukemia): 83.8 µM
TGI (IGROV1 ovarian): > 100 µM
TGI (T-47D breast): > 100 µM
TGI (CCRF-CEM leukemia): 56.2 µM
TGI (M14 melanoma): 39.9 µM
TGI (786-0 renal): > 100 µM

CCCn1cnc2c(SCc3ccc(Cl)cc3)nc(N)nc21
TGI (MDA-N): 55 µM
TGI (OVCAR-4 ovarian): > 100 µM
TGI (TK-10 renal): 55.1 µM
TGI (RPMI-8226 leukemia): 40.2 µM
TGI (IGROV1 ovarian): > 100 µM
TGI (T-47D breast): > 100 µM
TGI (CCRF-CEM leukemia): > 100 µM
TGI (M14 melanoma): 81.5 µM
TGI (786-0 renal): > 100 µM

O=C(N[C@@H](Cc1coc2ccccc12)B(O)O)[C@@H]1C[C@H]2CC[C@@H]1O2
GI50 (OVCAR-4 ovarian): 7.36 µM
TGI (OVCAR-4 ovarian): > 100 µM
GI50 (TK-10 renal): 2.44 µM
TGI (TK-10 renal): 11.5 µM
GI50 (RPMI-8226 leukemia): 0.45 µM
TGI (RPMI-8226 leukemia): 5.2 µM
GI50 (IGROV1 ovarian): 16.1 µM
TGI (IGROV1 ovarian): > 100 µM
GI50 (T-47D breast): 2.77 µM
TGI (T-47D breast): > 100 µM
GI50 (CCRF-CEM leukemia): 1.2 µM
TGI (CCRF-CEM leukemia): > 100 µM
GI50 (M14 melanoma): 3.01 µM
TGI (M14 melanoma): 82.7 µM

CCCO[C@@H]1[C@@H](OC(C)=O)[C@@H](OC(C)=O)C(C)(C)/C=C/[C@H](C)C(=O)[C@@]2(OC(C)=O)C[C@@](C)(OC(C)=O)[C@H](OC(C)=O)[C@@H]2[C@H]2OC(=O)CC[C@@]12OC(=O)c1ccccc1
TGI (MDA-N): > 25 µM
TGI (OVCAR-4 ovarian): > 25 µM
TGI (TK-10 renal): > 25 µM
TGI (IGROV1 ovarian): > 25 µM
TGI (T-47D breast): > 25 µM
TGI (CCRF-CEM leukemia): > 25 µM
TGI (M14 melanoma): > 25 µM

COc1ccc(C2COc3c(ccc(O)c3C)C2)cc1OC (stereo unspecified)
TGI (OVCAR-4 ovarian): > 200 µM
TGI (XF 498 CNS): 124 µM
TGI (RPMI-8226 leukemia): 166 µM
TGI (DMS 273 small cell lung): 199 µM
TGI (DMS 114 small cell lung): 196 µM
TGI (SNB-78 CNS): > 200 µM
TGI (IGROV1 ovarian): > 200 µM
TGI (CCRF-CEM leukemia): > 200 µM

CN(C)CCNC(=O)c1cccc2[nH]c(-c3ccccn3)nc12
TGI (OVCAR-4 ovarian): > 78.6 µM
TGI (XF 498 CNS): > 100 µM
TGI (RPMI-8226 leukemia): 62.3 µM
TGI (DMS 273 small cell lung): > 72.2 µM
TGI (DMS 114 small cell lung): > 80.2 µM
TGI (SNB-78 CNS): > 100 µM
TGI (IGROV1 ovarian): > 100 µM
TGI (CCRF-CEM leukemia): > 100 µM

Nc1nc(SCc2ccccc2Cl)c2[nH]cnc2n1
TGI (TK-10 renal): 67 µM
TGI (RPMI-8226 leukemia): > 100 µM
TGI (DMS 273 small cell lung): > 100 µM
TGI (DMS 114 small cell lung): > 100 µM
TGI (SNB-78 CNS): > 100 µM
TGI (IGROV1 ovarian): > 100 µM
TGI (CCRF-CEM leukemia): > 100 µM
TGI (M14 melanoma): > 100 µM

C/C(=N\NC(=S)N1CCCC1)c1nc2ncccc2[nH]1
TGI (MDA-N): > 100 µM
TGI (OVCAR-4 ovarian): 18.6 µM
TGI (TK-10 renal): 45 µM
TGI (RPMI-8226 leukemia): 39.4 µM
TGI (T-47D breast): > 100 µM
TGI (CCRF-CEM leukemia): 1.1 µM
TGI (M14 melanoma): 31.3 µM
TGI (786-0 renal): 21.7 µM

Cc1nc2ccc(S(=O)(=O)Nc3nccs3)cc2c(=O)n1NS(=O)(=O)c1nccs1
TGI (MDA-N): > 100 µM
TGI (OVCAR-4 ovarian): > 100 µM
TGI (TK-10 renal): > 100 µM
TGI (RPMI-8226 leukemia): > 100 µM
TGI (IGROV1 ovarian): > 100 µM
TGI (T-47D breast): > 100 µM
TGI (CCRF-CEM leukemia): > 100 µM
TGI (M14 melanoma): > 100 µM

C=CCCC1(C)CCCNC1=S (stereo unspecified)
TGI (OVCAR-4 ovarian): > 100 µM
TGI (XF 498 CNS): > 100 µM
TGI (TK-10 renal): > 100 µM
TGI (RPMI-8226 leukemia): > 100 µM
TGI (DMS 273 small cell lung): > 100 µM
TGI (DMS 114 small cell lung): > 100 µM
TGI (IGROV1 ovarian): > 100 µM
TGI (CCRF-CEM leukemia): > 100 µM
TGI (M14 melanoma): > 100 µM

COc1ccc2c(c1)c(-c1nc(-c3c[nH]c4ncccc34)cs1)cn2CCCCN1CCCCC1
GI50 (TK-10 renal): 1.51 µM
TGI (TK-10 renal): 2.93 µM
GI50 (CCRF-CEM leukemia): 1.83 µM
TGI (CCRF-CEM leukemia): 3.5 µM

CCCCC1C=Cn2c(=O)oc3c(OC(C)C)c(C)c(O)c1c32 (stereo unspecified)
TGI (MDA-N): 9.67 µM
TGI (OVCAR-4 ovarian): 2.37 µM
TGI (TK-10 renal): 18.7 µM
TGI (RPMI-8226 leukemia): 11.8 µM
TGI (IGROV1 ovarian): 10.1 µM
TGI (T-47D breast): 5.93 µM
TGI (CCRF-CEM leukemia): 5.1 µM
TGI (M14 melanoma): 3.15 µM

O=C1c2ccccc2OCC12OC21C=CC(Cl)=CC1 (stereo unspecified)
TGI (MDA-N): 43.8 µM
TGI (OVCAR-4 ovarian): 46.4 µM
TGI (TK-10 renal): > 100 µM
TGI (RPMI-8226 leukemia): 47.4 µM
TGI (IGROV1 ovarian): > 100 µM
TGI (M14 melanoma): > 100 µM

CCC(=O)OCN(C)c1nc(N(C)COC(=O)CC)nc(N(C)COC(=O)CC)n1
TGI (MDA-N): > 100 µM
TGI (OVCAR-4 ovarian): > 100 µM
TGI (TK-10 renal): > 100 µM
TGI (RPMI-8226 leukemia): 76 µM
TGI (IGROV1 ovarian): > 100 µM
TGI (T-47D breast): > 100 µM
TGI (CCRF-CEM leukemia): > 100 µM
TGI (M14 melanoma): 77.3 µM
